Assay results taken from US20130202649A1, “ACTIVATION OF INNATE IMMUNITY FOR NUCLEAR REPROGRAMMING OF SOMATIC CELLS” (The Board of Trustees of the Leland Stanford Junior …, priority 2012, published 2013).

Columns and labels:
[1] = system: innate immune response genes (TLR3, NF-κB, IFN-β, Stat1, Stat2); assay: Expression of innate immunity related genes; format: cell-based, human
Text: To gain more insight into the mechanisms by which a retroviral particle could accelerate nuclear reprogramming, we substituted a non-integrating mutant of pMX-GFP by introducing a frameshift mutation near the poi coding region of the retrovirus. This mutant can enter the cell, direct synthesis of intact virus particles that retain reverse transcriptase activity, but cannot integrate newly synthesized viral DNA into the host genome. […] Accordingly, integration of foreign DNA into the host genome is not required for the difference in gene expression between the CPPs and their corresponding viral vectors. Viral infection activates innate immunity, by virtue of interaction with Toll-like receptors (TLRs). The TLRs recognize pathogen-associated molecular patterns (PAMPs) associated with viral protein, lipopolysaccharides, DNA or RNA. We hypothesized that activation of innate immunity through TLRs may be involved in the difference in gene expression. Indeed, we observed that our retroviral vectors (but not the CPPs) activated inflammatory (innate immune response) genes, including the toll-like receptor 3 (TLR3), NF-κB, IFN-β, Stat1 and Stat2 (FIG. 11).
Treatments At 60-70% confluency, BJ fibroblast cells were serum-starved using 1% serum to induce G1 cell cycle arrest. […]

human BJ fibroblasts = assay: Temporal target and pluripotency gene expression (qPCR) after retroviral vector, CPP or TLR3 agonist treatment; format: cell-based
Text: In an effort to understand and overcome this failure, we examined the temporal sequence of target gene expression in response to a retroviral construct (pMX-Sox2) versus the corresponding CPP(CPP-SOX2). We focused on validated downstream targets such as Jarid2, Zic2, and bMyb for Sox2-activated genes, as well as, downstream genes known to function in nuclear reprogramming, i.e. Nanog, Sox2 and Oct4. Human fibroblasts were synchronized by serum starvation and then subjected to either a single infection with pMX-Sox2 or daily treatments of CPP-SOX2, and gene expression was assayed over 6 days.
Viral preparation and infection HEK293FT cells were plated at 6×10^6 cells per T225 flask and incubated overnight. Cells were transfected with 10 μg of VSV-G (envelope protein), 15 μg of pUMVC (packaging plasmid) and 10 μg of gene of interest (Sox2 or Oct4) with Lipofectamine. 48 hours after transfection, the supernatant of transfectant was collected and filtered through a 0.45 μm filter. Following spinning at 17,100 rpm for 2 hr 20 min, the viral pellet was resuspended to make 100× stock solutions. Human fibroblasts were seeded at 5×10^4 cells per well of a 6-well dish a day before transduction. The medium was replaced with virus-containing supernatant supplemented with 8 μg/ml polybrene, and incubated for 24 hr.
Treatments At 60-70% confluency, BJ fibroblast cells were serum-starved using 1% serum to induce G1 cell cycle arrest. The synchronized BJ fibroblasts were then subjected to either a single infection with retroviral constructs or daily treatments with 200 nM CPPs (CPP-SOX2 or CPP-OCT4). Poly I:C (300 ng/ml) was added to the cells simultaneously with the CPPs. For experiments involving peptide inhibitors, cells were pretreated for 6 hrs at 40 uM with either MyD88 inhibitory peptide (Pepinh-MyD) or TRIF inhibitory peptide (Pepinh-TRIF) followed by CPP treatments.
Gene Expression and Microarray Analyses RNA was isolated with the RNeasy kit. First-strand cDNA was primed with oligo(dT) primers and qPCR was performed with primer sets from Applied Biosystems. […]

## Polyinosinicpolycytidylic acid [Poly I:C]
[1]; BJ fibroblasts
  expression of NF-κB and TLR3: sustained increase
[1]; human fibroblasts
  expression of inflammatory (innate immune response) genes: induces the expression of genes involved in innate immunity
Human BJ fibroblasts; agent alone, CPP 200 nM daily or single infection on Day 0, assayed over 6 days
  target and pluripotency gene expression: unaffected
Human BJ fibroblasts; combined with CPP-OCT4 200 nM daily
  temporal expression of the downstream genes induced by CPP-OCT4: accelerated
Human BJ fibroblasts; combined with CPP-SOX2 200 nM daily, poly I:C 300 ng/ml
  expression of the downstream genes induced by CPP-SOX2: accelerated
